# Data: patent US8143408B2, “N-(8-heteroaryltetrahydronaphtalene-2yl) or N-(5-heteroarylchromane-3-yl) carboxamide derivatives for the treatment of pain” (AstraZeneca AB, priority 2007, dated 2012)
# Biological target: T1, Nav1.7 voltage-gated sodium channel (Homo sapiens, UniProt Q15858)
# T1 construct: Gene(s) encoding the full-length protein of the voltage-gated sodium channel of interest are cloned and expressed; expressed in transfected cells
# Test: Whole-cell voltage clamp electrophysiology assay
# Type: cell-based
# Details: cells stably expressing the voltage-gated sodium channel of interest
# Description: Gene(s) encoding the full-length protein of the voltage-gated sodium channel of interest are cloned and expressed under a suitable promoter in a suitable cell line, as well known in the art. […] Suitable screening assays are as follows.
# Electrophysiological studies can be performed using automated patch-clamp electrophysiology platforms, like IonWorks HT, IonWorks Quattro, PatchXpress, QPatch or any other suitable platform. […] Suitable extracellular and intracellular buffer for such experiments are applied according to the instructions given by the manufacturer of the automated patch-clamp platforms. Cells that express the voltage-gated sodium channel protein of interest are exposed to drugs through the pipetting system integrated in the platforms. A suitable voltage stimulus protocol is used to activate the voltage-gated sodium channel proteins of interest through depolarisation from a defined holding potential.
# Electrophysiological studies can also be performed using the whole cell configuration of the standard patch clamp technique. In this assay, cells that express the voltage-gated sodium channel protein of interest are exposed to the drugs by conventional microperfusion systems and a suitable voltage stimulus protocol is used to activate the voltage-gated sodium channels.
# T1 sequence (Q15858 whole entry): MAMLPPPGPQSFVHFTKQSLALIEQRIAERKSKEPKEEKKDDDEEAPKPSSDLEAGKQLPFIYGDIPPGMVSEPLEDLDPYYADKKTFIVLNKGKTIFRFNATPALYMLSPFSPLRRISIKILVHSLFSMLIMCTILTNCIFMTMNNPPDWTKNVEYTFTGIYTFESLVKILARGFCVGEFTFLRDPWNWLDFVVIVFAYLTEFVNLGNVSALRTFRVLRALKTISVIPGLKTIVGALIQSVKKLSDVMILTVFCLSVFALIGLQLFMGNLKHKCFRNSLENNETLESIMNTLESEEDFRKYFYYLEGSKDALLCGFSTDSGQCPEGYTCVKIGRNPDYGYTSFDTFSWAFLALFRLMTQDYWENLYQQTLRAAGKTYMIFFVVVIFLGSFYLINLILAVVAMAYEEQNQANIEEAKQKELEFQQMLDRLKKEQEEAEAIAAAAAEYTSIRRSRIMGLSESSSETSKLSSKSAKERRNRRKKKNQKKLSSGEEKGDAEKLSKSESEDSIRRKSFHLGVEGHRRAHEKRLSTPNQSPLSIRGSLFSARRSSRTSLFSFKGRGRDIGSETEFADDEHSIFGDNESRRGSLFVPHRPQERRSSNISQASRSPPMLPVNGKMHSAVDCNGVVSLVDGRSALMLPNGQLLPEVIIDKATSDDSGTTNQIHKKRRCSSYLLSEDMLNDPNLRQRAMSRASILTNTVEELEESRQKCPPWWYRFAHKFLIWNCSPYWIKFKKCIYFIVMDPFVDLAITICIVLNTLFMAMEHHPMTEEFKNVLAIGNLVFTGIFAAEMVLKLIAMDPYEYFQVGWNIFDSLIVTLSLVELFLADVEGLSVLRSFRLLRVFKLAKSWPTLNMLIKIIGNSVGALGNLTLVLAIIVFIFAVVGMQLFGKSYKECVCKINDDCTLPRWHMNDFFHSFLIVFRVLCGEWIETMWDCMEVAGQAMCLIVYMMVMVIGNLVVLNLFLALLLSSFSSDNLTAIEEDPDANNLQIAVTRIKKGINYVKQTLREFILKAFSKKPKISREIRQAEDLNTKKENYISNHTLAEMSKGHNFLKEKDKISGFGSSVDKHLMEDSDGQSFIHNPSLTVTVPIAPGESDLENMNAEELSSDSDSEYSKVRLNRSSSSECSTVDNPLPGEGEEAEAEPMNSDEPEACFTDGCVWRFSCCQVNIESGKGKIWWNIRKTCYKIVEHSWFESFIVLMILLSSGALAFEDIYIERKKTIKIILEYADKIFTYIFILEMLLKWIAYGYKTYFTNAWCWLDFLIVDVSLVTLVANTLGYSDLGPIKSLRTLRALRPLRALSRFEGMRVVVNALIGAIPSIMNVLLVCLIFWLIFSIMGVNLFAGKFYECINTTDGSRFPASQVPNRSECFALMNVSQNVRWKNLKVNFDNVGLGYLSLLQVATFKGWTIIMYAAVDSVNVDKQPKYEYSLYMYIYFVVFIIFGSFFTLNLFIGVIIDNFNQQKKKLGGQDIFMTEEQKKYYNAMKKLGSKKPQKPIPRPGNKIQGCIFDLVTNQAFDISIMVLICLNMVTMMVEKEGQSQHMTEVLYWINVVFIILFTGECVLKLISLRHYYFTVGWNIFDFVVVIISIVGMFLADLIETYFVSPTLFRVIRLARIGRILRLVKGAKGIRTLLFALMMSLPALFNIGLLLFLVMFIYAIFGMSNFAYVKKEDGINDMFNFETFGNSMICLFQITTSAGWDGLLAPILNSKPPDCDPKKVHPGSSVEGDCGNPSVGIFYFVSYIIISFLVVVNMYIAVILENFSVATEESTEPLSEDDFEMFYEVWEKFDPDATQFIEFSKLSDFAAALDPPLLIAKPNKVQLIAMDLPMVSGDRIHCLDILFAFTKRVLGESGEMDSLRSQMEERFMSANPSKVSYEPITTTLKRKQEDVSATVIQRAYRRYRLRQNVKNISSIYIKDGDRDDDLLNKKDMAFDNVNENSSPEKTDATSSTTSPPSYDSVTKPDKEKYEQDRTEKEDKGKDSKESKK
row,Structure (SMILES),IC50 [nM]
1,"COc1ccc(-c2ccc(C(=O)N[C@@H]3COc4cccc(-c5ccncc5)c4C3)cn2)c(OC)c1 [Example 70, 6-(2,4-dimethoxyphenyl)-N-[(3S)-5-pyridin-4-yl-3,4-dihydro-2H-chromen-3-yl]nicotinamide]",1000
2,"COc1ncccc1-c1cccc2c1C[C@H](NC(=O)c1ccc(OC(C)C)nc1)CO2 [Example 71, 6-isopropoxy-N-[(3S)-5-(2-methoxypyridin-3-yl)-3,4-dihydro-2H-chromen-3-yl]nicotinamide]",2000
3,"COc1ncc(-c2cccc3c2C[C@@H](NC(=O)c2ccc(OC(C)C)nc2)CC3)cn1 [Example 73, 6-isopropoxy-N-[(2S)-8-(2-methoxypyrimidin-5-yl)-1,2,3,4-tetrahydronaphthalen-2-yl]nicotinamide]",3980
4,"O=C(N[C@@H]1CCc2cccc(-c3ccnnc3)c2C1)c1ccc(OCCC(F)(F)F)nc1 [Example 75, N-[(2R)-8-pyridazin-4-yl-1,2,3,4-tetrahydronaphthalen-2-yl]-6-(3,3,3-trifluoropropoxy)nicotinamide]",631
5,"CC(C)Oc1ccc(C(=O)N[C@@H]2CCc3cccc(-c4ccnnc4)c3C2)cn1 [Example 78, 6-isopropoxy-N-[(2R)-8-pyridazin-4-yl-1,2,3,4-tetrahydronaphthalen-2-yl]nicotinamide]",3160
6,"COc1cnc(C(=O)N[C@@H]2COc3cccc(-c4cnc(OC)c(F)c4)c3C2)cn1 [Example 79, N-[(3S)-5-(5-fluoro-6-methoxypyridin-3-yl)-3,4-dihydro-2H-chromen-3-yl]-5-methoxypyrazine-2-carboxamide]",1260
7,"O=C(N[C@@H]1COc2cccc(-c3ccnnc3)c2C1)c1ccc(OCC(F)(F)F)nc1 [Example 80, N-[(3S)-5-pyridazin-4-yl-3,4-dihydro-2H-chromen-3-yl]-6-(2,2,2-trifluoroethoxy)nicotinamide]",2510
8,"COc1ncc(-c2cccc3c2C[C@H](NC(=O)c2ccc(OC(C)C)nc2)CC3)cn1 [Example 82, 6-isopropoxy-N-[(2R)-8-(2-methoxypyrimidin-5-yl)-1,2,3,4-tetrahydronaphthalen-2-yl]nicotinamide]",2510
9,"COc1cnc(C(=O)N[C@@H]2COc3cccc(-c4cnc(OC)nc4)c3C2)cn1 [Example 83, 5-methoxy-N-[(3S)-5-(2-methoxypyrimidin-5-yl)-3,4-dihydro-2H-chromen-3-yl]pyrazine-2-carboxamide]",5010
10,"COc1ncc(-c2cccc3c2C[C@H](NC(=O)c2cnc(OCC(F)(F)F)nc2C)CO3)cn1 [Example 89, N-[(3S)-5-(2-methoxypyrimidin-5-yl)-3,4-dihydro-2H-chromen-3-yl]-4-methyl-2-(2,2,2-trifluoroethoxy)pyrimidine-5-carboxamide]",2000
11,"COc1ncc(-c2cccc3c2C[C@H](NC(=O)c2cnc(OCC(F)(F)F)nc2C)CC3)cn1 [Example 90, N-[(2R)-8-(2-methoxypyrimidin-5-yl)-1,2,3,4-tetrahydronaphthalen-2-yl]-4-methyl-2-(2,2,2-trifluoroethoxy)pyrimidine-5-carboxamide]",1580
12,"COc1ncc(-c2cccc3c2C[C@H](NC(=O)c2cnc(OC(C)C)nc2C)CO3)cn1 [Example 92, 2-isopropoxy-N-[(3S)-5-(2-methoxypyrimidin-5-yl)-3,4-dihydro-2H-chromen-3-yl]-4-methylpyrimidine-5-carboxamide]",5010
13,"CCOc1ncc(-c2cccc3c2C[C@H](NC(=O)c2ccc(OCC(F)(F)F)nc2)CO3)cn1 [Example 93, N-[(3S)-5-(2-ethoxypyrimidin-5-yl)-3,4-dihydro-2H-chromen-3-yl]-6-(2,2,2-trifluoroethoxy)nicotinamide]",631
14,"COc1ncc(-c2cccc3c2C[C@H](NC(=O)c2ccc(OC4CCC4)nc2)CO3)cc1F [Example 94, 6-(cyclobutyloxy)-N-[(3S)-5-(5-fluoro-6-methoxypyridin-3-yl)-3,4-dihydro-2H-chromen-3-yl]nicotinamide]",794
15,"COc1cc(-c2cccc3c2C[C@H](NC(=O)c2ccc(OCC(F)(F)F)nc2)CO3)c(OC)nn1 [Example 98, N-[(3S)-5-(3,6-dimethoxypyridazin-4-yl)-3,4-dihydro-2H-chromen-3-yl]-6-(2,2,2-trifluoroethoxy)nicotinamide]",6310
16,"Cc1ncc(-c2cccc3c2C[C@H](NC(=O)c2ccnc(OC(C)C)c2)CO3)cn1 [Example 104, 2-isopropoxy-N-[(3S)-5-(2-methylpyrimidin-5-yl)-3,4-dihydro-2H-chromen-3-yl]isonicotinamide]",2510

# Stronger by IC50, values ahead:
row,IC50 [nM],Structure (SMILES)
1,501,"COc1ncccc1-c1cccc2c1C[C@H](NC(=O)c1ccc(OCCC(F)(F)F)nc1)CO2 [Example 72, N-[(3S)-5-(2-methoxypyridin-3-yl)-3,4-dihydro-2H-chromen-3-yl]-6-(3,3,3-trifluoropropoxy)nicotinamide]"
2,501,"COc1ncc(-c2cccc3c2C[C@H](NC(=O)c2ccc(OCC(F)(F)F)nc2)CC3)cn1 [Example 85, N-[(2R)-8-(2-methoxypyrimidin-5-yl)-1,2,3,4-tetrahydronaphthalen-2-yl]-6-(2,2,2-trifluoroethoxy)nicotinamide]"
3,398,"COc1ccc(-c2cccc3c2C[C@H](NC(=O)c2ccc(OC(C)C)nc2)CO3)cn1 [Example 76, 6-isopropoxy-N-[(3S)-5-(6-methoxypyridin-3-yl)-3,4-dihydro-2H-chromen-3-yl]nicotinamide]"
4,398,"O=C(N[C@@H]1COc2cccc(-c3ccnnc3)c2C1)c1ccc(OCCC(F)(F)F)nc1 [Example 81, N-[(3S)-5-pyridazin-4-yl-3,4-dihydro-2H-chromen-3-yl]-6-(3,3,3-trifluoropropoxy)nicotinamide]"
5,398,"COc1ncc(-c2cccc3c2C[C@H](NC(=O)c2ccc(OCCC(F)(F)F)nc2)CC3)cn1 [Example 84, N-[(2R)-8-(2-methoxypyrimidin-5-yl)-1,2,3,4-tetrahydronaphthalen-2-yl]-6-(3,3,3-trifluoropropoxy)nicotinamide]"
6,398,"COc1ncc(-c2cccc3c2C[C@H](NC(=O)c2ccc(OCC(F)(F)F)nc2)CO3)cc1F [Example 88, N-[(3S)-5-(5-fluoro-6-methoxypyridin-3-yl)-3,4-dihydro-2H-chromen-3-yl]-6-(2,2,2-trifluoroethoxy)nicotinamide]"
7,398,"COc1ncc(-c2cccc3c2C[C@H](NC(=O)c2ccc(OCCC(F)(F)F)nc2)CO3)cc1F [Example 97, N-[(3S)-5-(5-fluoro-6-methoxypyridin-3-yl)-3,4-dihydro-2H-chromen-3-yl]-6-(3,3,3-trifluoropropoxy)nicotinamide]"
8,398,"Cc1cncc(-c2cccc3c2C[C@H](NC(=O)c2ccc(OCC(F)(F)F)nc2)CO3)n1 [Example 99, N-[(3S)-5-(6-methylpyrazin-2-yl)-3,4-dihydro-2H-chromen-3-yl]-6-(2,2,2-trifluoroethoxy)nicotinamide]"
9,398,"COc1ncc(-c2cccc3c2C[C@H](NC(=O)c2ccc(OCCCF)nc2)CO3)cn1 [Example 100, 6-(3-fluoropropoxy)-N-[(3S)-5-(2-methoxypyrimidin-5-yl)-3,4-dihydro-2H-chromen-3-yl]nicotinamide]"
10,251,"CC(C)Oc1ccc(C(=O)N[C@@H]2CCc3cccc(-c4cccnc4F)c3C2)cn1 [Example 74, N-[(2R)-8-(2-fluoropyridin-3-yl)-1,2,3,4-tetrahydronaphthalen-2-yl]-6-isopropoxynicotinamide]"
11,200,"O=C(N[C@@H]1CCc2cccc(-c3cccnc3F)c2C1)c1ccc(OCC(F)(F)F)nc1 [Example 87, N-[(2R)-8-(2-fluoropyridin-3-yl)-1,2,3,4-tetrahydronaphthalen-2-yl]-6-(2,2,2-trifluoroethoxy)nicotinamide]"
12,158,"CCc1ncc(-c2cccc3c2C[C@H](NC(=O)c2ccc(OCC(F)(F)F)nc2)CO3)cn1 [Example 95, N-[(3S)-5-(2-ethylpyrimidin-5-yl)-3,4-dihydro-2H-chromen-3-yl]-6-(2,2,2-trifluoroethoxy)nicotinamide]"
13,158,"Cc1ncc(-c2cccc3c2C[C@H](NC(=O)c2ccc(OCCCF)nc2)CO3)cn1 [Example 101, 6-(3-fluoropropoxy)-N-[(3S)-5-(2-methylpyrimidin-5-yl)-3,4-dihydro-2H-chromen-3-yl]nicotinamide]"
14,126,"COc1ccc(-c2cccc3c2C[C@H](NC(=O)c2ccc(OCCC(F)(F)F)nc2)CO3)cn1 [Example 77, N-[(3S)-5-(6-methoxypyridin-3-yl)-3,4-dihydro-2H-chromen-3-yl]-6-(3,3,3-trifluoropropoxy)nicotinamide]"
15,100,"Cc1ncc(-c2cccc3c2C[C@H](NC(=O)c2ccc(OCC(F)(F)F)nc2)CO3)cn1 [Example 102, N-[(3S)-5-(2-methylpyrimidin-5-yl)-3,4-dihydro-2H-chromen-3-yl]-6-(2,2,2-trifluoroethoxy)nicotinamide]"
16,79.4,"O=C(N[C@@H]1COc2cccc(-c3ccc4nccn4c3)c2C1)c1ccc(OCC(F)(F)F)nc1 [Example 91, N-[(3S)-5-imidazo[1,2-a]pyridin-6-yl-3,4-dihydro-2H-chromen-3-yl]-6-(2,2,2-trifluoroethoxy)nicotinamide]"
17,50.1,"O=C(N[C@@H]1COc2cccc(-c3cnc(C4CC4)nc3)c2C1)c1ccc(OCCCF)nc1 [Example 96, N-[(3S)-5-(2-cyclopropylpyrimidin-5-yl)-3,4-dihydro-2H-chromen-3-yl]-6-(3-fluoropropoxy)nicotinamide]"
